Data: patent US10398142B2, “Polycationic amphiphiles as antimicrobial agents” (priority 2013, dated 2019)
Like-named read-outs stand apart in the source and are kept apart here.

What was measured:
HA-MRSA (ATCC 33591) = assay: Minimum inhibitory concentration (MIC), broth microdilution; type: cell-based, Staphylococcus aureus; conditions: Table 4; ATCC 33591; read-out: MIC HA-MRSA
In short: (§1)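 Two-fold serial dilutions (twelve concentrations) from aqueous stock; inoculum ca. 10^6 cfu/mL in Mueller-Hinton media, static incubation at 37 °C for 72 h. MIC read visually as lowest concentration with no visible growth, majority of three independent experiments.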

CA-MRSA (USA300-0114) [1] = assay: as above; type: cell-based, Staphylococcus aureus; conditions: Table 4; USA300-0114; read-out: MIC CA-MRSA
In short: as §1

[2] = system: red blood cells (defibrinated sheep blood); assay: Hemolysis assay (Lysis20); conditions: Table 4; concentration at which less than 20% of red blood cells are lysed
In short: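 Defibrinated sheep red blood cells were incubated with compounds serially diluted in PBS, and the suspensions were read by OD. 1% Triton X served as 100% lysis and PBS as 0% lysis. Lysis20 is the concentration (μM) at which less than 20% of cells are lysed.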

[3] = system: CA-MRSA (USA300-0114) biofilms; assay: Minimum biofilm eradication concentration (MBEC), regrowth assay; type: cell-based, Staphylococcus aureus; conditions: Table 5; USA300-0114
In short: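 CA-MRSA USA300-0114 biofilms grown statically 24 h at 37 °C in BHI, then exposed to compound for 16 h at 37 °C. After PBS washes, biofilms regrown overnight in fresh media; MBEC is the lowest concentration giving OD595 below 0.1, four replicates per concentration.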

[4] = system: Escherichia coli (MC4100); assay: Minimum inhibitory concentration (MIC), broth microdilution; type: cell-based; conditions: Table 3; read-out: MIC E. coli
In short: (§2)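 Broth microdilution: two-fold serial dilutions (twelve concentrations) mixed 1:1 with overnight cultures diluted to ca. 10^6 cfu/mL in Mueller-Hinton media, incubated statically at 37° C for 72 hours. MIC is lowest concentration with no growth visible to the naked eye, majority of three independent experiments.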

[5] = system: Pseudomonas aeruginosa (PAO1); assay: as above; type: cell-based; conditions: Table 3; read-out: MIC P. aeruginosa
In short: as §2

[6] = system: Staphylococcus aureus MSSA (SH1000); assay: as above; type: cell-based
In short: as §2

[7] = system: Enterococcus faecalis (OG1RF); assay: as above; type: cell-based; conditions: Table 3; read-out: MIC E. faecalis
In short: as §2

[8] = system: Staphylococcus aureus, Enterococcus faecalis, Escherichia coli and Pseudomonas aeruginosa; assay: MIC, summary statements over the four bacteria; type: cell-based; conditions: comparison of MIC values
Method: The term “minimum inhibitory concentration (MIC)” means the lowest concentration of an antimicrobial agent that will inhibit the visible growth of a microorganism after overnight incubation. MIC values against bacteria, for example, the Gram-positive Staphylococcus aureus and Enterococcus faecalis and the Gram-negative Escherichia coli and Pseudomonas aeruginosa were determined by standard methods. See also P. A. Wayne, Methods for Dilution Antimicrobial Tests for Bacteria that Grow Aerobically; Approved Standard, Ninth Edition, 2012, CLSI Document M07-A9, Vol. 32 No. 2.
With nearly three-dozen amphiphiles varying in structure and cationic nature synthesized, minimum inhibitory concentration (MIC) values against the Gram-positive Staphylococcus aureus and Enterococcus faecalis and the Gram-negative Escherichia coli and Pseudomonas aeruginosa were determined by standard methods. […] The commercially available antibacterial agent benzalkonium chloride (benzyldimethyldodecylammonium chloride, Bn,12) was tested for comparison. The broth microdilution for determining MIC values was performed as previously reported.
MIC variation mostly hinged on the length of alkyl chain, where the dodecyl chain was generally found to be optimal. […]

MSSA (SH1000) = assay: Resistance development, liquid culture serial passage; type: cell-based, Staphylococcus aureus; conditions: over 24 days (>500 generations)
Method: (§3) Resistance development such as liquid culture resistance assay was performed. […] Once a day, an aliquot of bacterial culture from the highest concentration allowing bacterial growth was diluted 1:10,000 in fresh media containing a range of antibacterial compound. This process was repeated for several hundred generations.
(§4) Resistance Development Assays: Liquid culture serial passage protocols, in which bacteria are successively grown at sub-lethal concentrations of antibacterial compound, were employed.

CA-MRSA (USA300-0114) [9] = assay: as above; type: cell-based, Staphylococcus aureus; conditions: over 24 days (>500 generations)
Method: as §3, §4

[10] = system: S. aureus (MSSA, SH1000) biofilms; assay: Minimum biofilm eradication concentration (MBEC), regrowth assay; type: cell-based, Staphylococcus aureus; conditions: Table 5; SH1000
In short: (§5)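 Static 24 h biofilms at 37° C. (BHI for S. aureus, Todd Hewitt for E. faecalis), then 16 h compound exposure, PBS washes and overnight regrowth in fresh media. MBEC is the lowest concentration giving final OD595 below 0.1; four replicates per concentration.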

E. faecalis biofilms = assay: as above; type: cell-based, Enterococcus faecalis; conditions: Table 5
In short: as §5

[11] = Table 3, read-out: MIC S. aureus
[12] = Table 4, SH1000, read-out: MIC MSSA

Row | Compound | MIC (HA-MRSA (ATCC 33591)) [µM] | MIC (CA-MRSA (USA300-0114) [1]) [µM] | Lysis20 [2] [µM] | MBEC CA-MRSA [3] [µM] | MIC [4] [µM] | MIC [5] [µM] | MIC [6, 11] [µM] | MIC [6, 12] [µM] | MIC [7] [µM] | fold more bioactive than (N4-12,0,0,0) [8] | resistance in serial passage, MSSA (MSSA (SH1000)) | resistance in serial passage, CA-MRSA (USA300-0114) (CA-MRSA (USA300-0114) [9]) | MBEC MSSA [10] [µM] | MBEC E. faecalis (E. faecalis biofilms) [µM]
1 | C=CC[N+](C)(CC[N+](C)(C)CCCCCCCCCCCC)CC[N+](C)(CC=C)CC[N+](C)(C)CCCCCCCCCCCC.[Br-].[Br-].[Br-].[Br-] (centres unmarked) [N4-12,3A,3A,12] | 0.5 | 1 | 8 | 150 ± 50 | 1 | 2 | 1 | 1 | 1 | about 8 fold | No resistance was observed | No resistance was observed | 100 | 200
2 | CCCCCCCCCCCC[N+](C)(C)CCN(C)CCN(C)CC[N+](C)(C)CCCCCCCCCCCC.[Br-].[Br-] [N4-12,0,0,12] | 1 | 1 | 4 | 100 | 1 | 4 | 1 | 1 | 1 | about 8 fold |  |  | 50 | 75 ± 25
